According to US7897582B2, “Oligonucleotide compositions and methods for the modulation of the expression of B7 protein” (Isis Pharmaceuticals, Inc., priority 2003, dated 2011):
Strand notation (5' to 3'): a small letter for the sugar, then the base; units joined by * are phosphorothioate-linked, units joined directly phosphodiester-linked; [ ] holds rarer units or linkages, { } end groups; capitals alone tell only the bases. e = 2'-O-(2-methoxyethyl) (MOE); [5mC] = 5-methylcytosine; d = 2'-deoxy (DNA)

Legend:
hB7-2 mRNA = experiment: Ribonuclease protection assay of hB7-2 mRNA in transfected COS-7 cells; type: cell-based, human
Description: For ribonuclease protection assays, cells were harvested 18 hours after completion of oligonucleotide treatment using a Totally RNA™ kit (Ambion, Austin, Tex.). The probes for the assay were generated from plasmids pcB7-2 (linearized by digestion with Bgl II) and pTRI-b-actin (Ambion Inc., Austin, Tex.). In vitro transcription of the linearized plasmid from the SP6 promoter was performed in the presence of α-^32P-UTP (800 Ci/mmole) yielding an antisense RNA complementary to the 3′ end of B7-2 (position 1044-1391). The probe was gel-purified after treatment with DNase I to remove DNA template. Ribonuclease protection assays were carried out using an RPA II™ kit (Ambion) according to the manufacturer's directions. Total RNA (5 μg) was hybridized overnight, at 42° C., with 10^5 cpm of the B7-2 probe or a control beta-actin probe. The hybridization reaction was then treated, at 37° C. for 30 minutes, with 0.4 units of RNase A and 2 units of RNase T1. Protected RNA was precipitated, resuspended in 10 μL of gel loading buffer and electrophoresed on a 6% acrylamide gel with 50% w/v urea at 20 W. The gel was then exposed and the lanes quantitated using a PhosphorImager (Molecular Dynamics, Sunnyvale, Calif.) essentially according to the manufacturer's instructions.
The oligonucleotides were screened as described in Example 4 except that the concentration of oligonucleotide was varied as shown in Table 13. Mismatch control oligonucleotides were included.

Human B7-1 mRNA = Human B7-1 mRNA expression in COS-7 cells, screened as in Example 4; type: cell-based; details: human B7-1 mRNA; Table 7
[1] = COS-7 cells, B7-2 mRNA, oligonucleotide dose 10 nM, basal = 100%
[2] = COS-7 cells, B7-2 mRNA, oligonucleotide dose 30 nM, basal = 100%
[3] = COS-7 cells, B7-2 mRNA, oligonucleotide dose 100 nM, basal = 100%
[4] = COS-7 cells, B7-2 mRNA, oligonucleotide dose 300 nM, basal = 100%
[5] = COS-7 cells, B7-2 mRNA, oligonucleotide dose 10 nM
[6] = COS-7 cells, B7-2 mRNA, oligonucleotide dose 30 nM

With “22303 (eA*eG*eA*eG*eT*dT*dG*d[5mC]*dG*dA*dG*dG*d[5mC]*d[5mC]*dG*e[5mC]*eT*eT*e[5mC]*eT; antisense) [compound 22303]” the “% mRNA EXPRESSION” value (hB7-2 mRNA; human B7-2 mRNA, Table 12) was 46%.

For “22304 (eT*e[5mC]*e[5mC]*e[5mC]*eT*d[5mC]*dT*d[5mC]*d[5mC]*dA*dT*dT*dG*dT*dG*eT*eT*eG*eG*eT; antisense) [compound 22304]”, the “% mRNA EXPRESSION” value (hB7-2 mRNA; human B7-2 mRNA, Table 12) was 41%.

“22305 (e[5mC]*eA*eT*e[5mC]*eA*dG*dA*dT*d[5mC]*dT*dT*dT*d[5mC]*dA*dG*eG*eT*eA*eT*eA; antisense) [compound 22305]” was tested, and the “% mRNA EXPRESSION” value (hB7-2 mRNA; human B7-2 mRNA, Table 12) was 57% and the “% mRNA INHIBITION” value (hB7-2 mRNA; human B7-2 mRNA, Table 12) was 43%.

In the case of “22306 (eG*eG*e[5mC]*eT*eT*dT*dA*d[5mC]*dT*d[5mC]*dT*dT*dT*dA*dA*eT*eT*eA*eA*eA; antisense) [compound 22306]”, the “% mRNA EXPRESSION” value (hB7-2 mRNA; human B7-2 mRNA, Table 12) is reported as 44%.

“22307 (eG*eA*eA*eA*eT*d[5mC]*dA*dA*dA*dA*dA*dG*dG*dT*dT*eG*e[5mC]*e[5mC]*e[5mC]*eA; antisense) [compound 22307]” was tested, and the “% mRNA EXPRESSION” value (hB7-2 mRNA; human B7-2 mRNA, Table 12) was 45%.

With “22308 (eG*eG*eA*eG*eT*d[5mC]*d[5mC]*dT*dG*dG*dA*dG*d[5mC]*d[5mC]*d[5mC]*e[5mC]*e[5mC]*eT*eT*eA; antisense) [compound 22308]” the “% mRNA EXPRESSION” value (hB7-2 mRNA; human B7-2 mRNA, Table 12) was 40%.

For “22309 (eT*eT*eG*eG*e[5mC]*dA*dT*dA*d[5mC]*dG*dG*dA*dG*d[5mC]*dA*eG*eA*eG*e[5mC]*eT; antisense) [compound 22309]”, the “% mRNA EXPRESSION” value (hB7-2 mRNA; human B7-2 mRNA, Table 12) was 42%.

For “22310 (eT*eG*eT*eG*e[5mC]*dT*d[5mC]*dT*dG*dA*dA*dG*dT*dG*dA*eA*eA*eA*eG*eA; antisense) [compound 22310]”, the “% mRNA EXPRESSION” value (hB7-2 mRNA; human B7-2 mRNA, Table 12) was 41%.

With “22311 (eG*eG*e[5mC]*eT*eT*dG*dG*d[5mC]*d[5mC]*d[5mC]*dA*dT*dA*dA*dG*eT*eG*eT*eG*e[5mC]; antisense) [compound 22311]” the “% mRNA EXPRESSION” value (hB7-2 mRNA; human B7-2 mRNA, Table 12) was 49%.

With “22312 (e[5mC]*e[5mC]*eT*eA*eA*dA*dT*dT*dT*dT*dA*dT*dT*dT*d[5mC]*e[5mC]*eA*eG*eG*eT; antisense) [compound 22312]” the “% mRNA EXPRESSION” value (hB7-2 mRNA; human B7-2 mRNA, Table 12) was 83% and the “% mRNA INHIBITION” value (hB7-2 mRNA; human B7-2 mRNA, Table 12) was 17%.

With “22313 (eA*eG*eA*e[5mC]*eT*d[5mC]*d[5mC]*dA*d[5mC]*dT*dT*d[5mC]*dT*dG*dA*eG*eA*eT*eG*eT; antisense) [compound 22313]” the “% mRNA EXPRESSION” value (Human B7-1 mRNA) was 75% and the “% mRNA INHIBITION” value (Human B7-1 mRNA) was 25%.

“22314 (eT*eG*eA*eA*eG*dA*dA*dA*dA*dA*dT*dT*d[5mC]*d[5mC]*dA*e[5mC]*eT*eT*eT*eT; antisense) [compound 22314]” was tested, and the “% mRNA EXPRESSION” value (Human B7-1 mRNA) was 69% and the “% mRNA INHIBITION” value (Human B7-1 mRNA) was 31%.

With “22315 (eT*eT*eT*eA*eG*dT*dT*dT*d[5mC]*dA*d[5mC]*dA*dG*d[5mC]*dT*eT*eG*e[5mC]*eT*eG) [compound 22315]” the “% mRNA EXPRESSION” value (Human B7-1 mRNA) was 49%.

For “22318 (eG*eT*eG*eA*eA*dA*dG*d[5mC]*d[5mC]*dA*dA*d[5mC]*dA*dA*dT*eT*eT*eG*eG*eA; antisense) [compound 22318]”, the “% mRNA EXPRESSION” value (Human B7-1 mRNA) was 63% and the “% mRNA INHIBITION” value (Human B7-1 mRNA) was 37%.

For “22319 (e[5mC]*eA*eT*eG*eG*d[5mC]*dT*dT*d[5mC]*dA*dG*dA*dT*dG*d[5mC]*eT*eT*eA*eG*eG; antisense) [compound 22319]”, the “% mRNA EXPRESSION” value (Human B7-1 mRNA) was 68% and the “% mRNA INHIBITION” value (Human B7-1 mRNA) was 32%.

With “24736 (antisense eG*e[5mC]*eT*e[5mC]*e[5mC]*dA*dA*dG*dT*dG*dT*d[5mC]*d[5mC]*d[5mC]*dA*eA*eT*eG*eA*eA) [compound 24736]” the “% mRNA EXPRESSION” value (hB7-2 mRNA; [1]) was 102%, the “% mRNA EXPRESSION” value (hB7-2 mRNA; [2]) was 101% and the “% mRNA EXPRESSION” value (hB7-2 mRNA; [3]) was 100%. The “% mRNA EXPRESSION” value (hB7-2 mRNA; [4]) was 107%.

With “24737 (antisense eA*eG*eT*eA*eT*dG*dT*dT*dT*d[5mC]*dT*d[5mC]*dA*d[5mC]*dT*e[5mC]*e[5mC]*eG*eA*eT) [compound 24737]” the “% mRNA INHIBITION” value (hB7-2 mRNA; [5]) was 15%, the “% mRNA EXPRESSION” value (hB7-2 mRNA; [1]) was 85% and the “% mRNA INHIBITION” value (hB7-2 mRNA; [6]) was 5%. For the same substance, the “% mRNA EXPRESSION” value (hB7-2 mRNA; [2]) was 95%, the “% mRNA INHIBITION” value (hB7-2 mRNA; COS-7 cells, B7-2 mRNA, oligonucleotide dose 100 nM) was 13% and the “% mRNA EXPRESSION” value (hB7-2 mRNA; [3]) was 87%. For the same substance, the “% mRNA INHIBITION” value (hB7-2 mRNA; COS-7 cells, B7-2 mRNA, oligonucleotide dose 300 nM) was 1% and the “% mRNA EXPRESSION” value (hB7-2 mRNA; [4]) was 99%.

For “24738 (antisense eT*eG*e[5mC]*e[5mC]*eA*dG*d[5mC]*dA*d[5mC]*d[5mC]*d[5mC]*dG*dG*dT*dA*e[5mC]*eG*eT*e[5mC]*e[5mC]) [compound 24738]”, the “% mRNA INHIBITION” value (hB7-2 mRNA; [5]) was 19%, the “% mRNA EXPRESSION” value (hB7-2 mRNA; [1]) was 81% and the “% mRNA INHIBITION” value (hB7-2 mRNA; [6]) was 8%. For the same substance, the “% mRNA EXPRESSION” value (hB7-2 mRNA; [2]) was 92%, the “% mRNA EXPRESSION” value (hB7-2 mRNA; [3]) was 101% and the “% mRNA EXPRESSION” value (hB7-2 mRNA; [4]) was 124%.
